Measured values reported in patent publication US10183931B2, “Rho kinase inhibitors” (priority 2012, dated 2019).
“Also recorded” adds a separate entry of the source.

What was measured:
[1] = biological target: ROCK1 (Homo sapiens (Human), UniProt Q13464); conditions: read-out: ROCK1 IC50; Z′-LYTE, 5 uM ATP
From the text: (§1) Dose response curves for Rho-kinase inhibition were derived from a Invitrogen Z′-LYTE™ Kinase Assay Kit (Invitrogen catalog number PV3793). Purified active ROCK1 and ROCK2 were obtained from Invitrogen (catalog numbers ROCK1, PV3691 and ROCK2, PV3759). The kit components include a coumarin and fluorescein labeled peptide based on myosin light chain 2 ([sequence]), a proprietary protease containing development reagent and a proprietary Stop buffer used to terminate the development reaction. The inhibitory activities of compounds are measured according to the manufactures protocol. Briefly, decreasing concentrations of test compounds or the known ROCK inhibitor Y-27963, are added, from 10 uM to 2.56×10^−5 uM to reaction buffer containing 50 mM HEPES pH 7.5, 10 mM MgCl2, 5 mM EGTA, and 0.05% Brij-35 and of ROCK1 at 0.18 ug/mL or ROCK2 at 0.8 ug/mL in assay dilution buffer. […] STOP reagent is then added and the reaction and immediately the coumarin and fluorescein emission signals are read on a Tecan Infinite M1000 fluorescence plate reader (excitation: 400 nm; emission 445 and 520 nm, respectively). By comparing the emission ratios of the test samples against control samples, percent phosphorylation values are calculated and the concentration of inhibitor that produces 1/2 inhibition of kinase activity (IC50) is determined using Prism.

[2] = biological target: ROCK2 (Homo sapiens (Human), UniProt O75116); conditions: read-out: ROCK2 IC50; Z′-LYTE, 12 uM ATP
From the text: as §1

[3] = system: human Tregs; assay: Treg suppression of IL-17 secretion in CD4+CD25- effector T cells; type: cell-based; conditions: Tregs treated 3 hours; Treg:Teff 1:4 and 1:9
[4] = system: CD4+ T cells from RA patients; assay: cytokine secretion ex vivo by CD3/CD28 stimulated CD4+ T cells from RA patients; type: cell-based, human
[5] = system: STAT3 phosphorylation; assay: STAT3 phosphorylation in T cells; type: cell-based, human
[6] = system: human CD4+ T cells; assay: cytokine secretion by anti-CD3/CD28 stimulated CD4+ T cells in vitro; type: cell-based; conditions: anti-CD3/CD28 stimulation
[7] = system: human CD4+ T cells; assay: Foxp3+ cells among CD4+ T cells after Th17 skewing activation; type: cell-based; conditions: 5 days Th17 skewing activation
[8] = system: TGF-β-induced phosphorylation; assay: TGF-β-induced phosphorylation of STAT3, MLC and SMAD2/3 in Tregs; type: cell-based, human
[9] = system: human CD4+ T cells; assay: T cell proliferation in response to TCR stimulation in vitro; type: cell-based
[10] = RA patients, ex vivo, TCR stimulation

Sequence of ROCK2 (O75116 5-554 limits assumed): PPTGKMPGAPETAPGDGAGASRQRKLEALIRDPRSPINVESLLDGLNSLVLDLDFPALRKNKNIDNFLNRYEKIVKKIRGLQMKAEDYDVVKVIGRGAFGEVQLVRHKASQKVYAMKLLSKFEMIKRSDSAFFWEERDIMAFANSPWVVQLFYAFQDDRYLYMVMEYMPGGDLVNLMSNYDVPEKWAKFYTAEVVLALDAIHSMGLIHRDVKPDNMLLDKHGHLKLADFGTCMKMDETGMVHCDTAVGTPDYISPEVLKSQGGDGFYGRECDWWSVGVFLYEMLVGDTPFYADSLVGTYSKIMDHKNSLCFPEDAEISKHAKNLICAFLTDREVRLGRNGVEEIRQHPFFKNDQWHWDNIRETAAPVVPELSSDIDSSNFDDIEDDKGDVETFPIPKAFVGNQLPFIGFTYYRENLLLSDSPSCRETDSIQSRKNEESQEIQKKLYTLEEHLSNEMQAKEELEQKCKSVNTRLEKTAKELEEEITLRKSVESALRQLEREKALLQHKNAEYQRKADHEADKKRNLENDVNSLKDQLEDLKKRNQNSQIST
Sequence of ROCK1 (Q13464 1-535 limits assumed): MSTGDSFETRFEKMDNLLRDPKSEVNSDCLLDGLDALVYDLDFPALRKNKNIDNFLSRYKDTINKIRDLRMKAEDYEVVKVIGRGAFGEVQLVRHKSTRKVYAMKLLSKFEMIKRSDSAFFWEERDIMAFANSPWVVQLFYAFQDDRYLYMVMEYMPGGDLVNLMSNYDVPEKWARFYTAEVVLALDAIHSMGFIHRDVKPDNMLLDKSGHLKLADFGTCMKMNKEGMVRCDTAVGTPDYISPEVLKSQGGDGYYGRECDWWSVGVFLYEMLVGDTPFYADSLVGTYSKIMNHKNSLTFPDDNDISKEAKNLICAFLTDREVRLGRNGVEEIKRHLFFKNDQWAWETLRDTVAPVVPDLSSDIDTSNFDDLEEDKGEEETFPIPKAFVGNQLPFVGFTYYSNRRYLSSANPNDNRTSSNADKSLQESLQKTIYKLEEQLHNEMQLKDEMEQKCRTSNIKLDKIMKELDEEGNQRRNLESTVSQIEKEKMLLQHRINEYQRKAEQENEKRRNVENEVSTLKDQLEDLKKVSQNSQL

| IC50 [1] [µM] | IC50 [2] [µM] | SMILES | ability of Tregs to suppress IL-17 secretion in CD4+CD25- effector T cells [3] | frequencies of IL-17 and IFN-γ-producing cells ([4]; 2 RA patients, intracellular staining) | secretion of IFN-γ [4, 10] | secretion of IL-17 [4, 10] | secretion of IL-21 [4, 10] | phosphorylation of STAT3 ([5]; T cells, two experimental designs) | STAT3 phosphorylation ([5]; Th17-skewing conditions 5 days, then treatment 3 hours) | inhibition of IFN-γ secretion [6] | inhibition of IL-2 secretion [6] | IL-17 secretion ([6]; dose-dependent) | IL-21 secretion ([6]; dose-dependent) | percentage of Foxp3+ cells [7] | phosphorylation of SMAD2/3 [8] | TGF-β-induced MLC phosphorylation ([8]; dose-dependent) | TGF-β-induced STAT3 phosphorylation ([8]; dose-dependent) | ability to proliferate in response to TCR stimulation [9] |
| --- | --- | --- | --- | --- | --- | --- | --- | --- | --- | --- | --- | --- | --- | --- | --- | --- | --- | --- |
| > 2 | > 5.5 | CC(N)c1cccc(-c2nccc(Nc3ccc4[nH]ncc4c3)n2)c1 (centres unmarked) [Example 147, N-(2-(3-(1-aminoethyl)phenyl)pyrimidin-4-yl)-1H-indazol-5-amine] | – | – | – | – | – | – | – | – | – | – | – | – | – | – | – | – |
| > 10 | > 10 | CC(C)NC(=O)COc1cccc(-c2nc(Nc3ccc4[nH]ncc4c3)cc(C(F)(F)F)n2)c1 [Example 169] | – | – | – | – | – | – | – | – | – | – | – | – | – | – | – | – |
| – | – | CC(C)NC(=O)COc1cccc(-c2nc(Nc3ccc4[nH]ncc4c3)c3ccccc3n2)c1 [KD025] | significantly increased | significantly reduced | inhibits; also recorded: significantly down-regulated | inhibits; also recorded: significantly down-regulated | inhibits; also recorded: significantly down-regulated | inhibits; also recorded: significantly down-regulates | reduced | less robust and significant only at high dose (10 μM) | observed only at the highest concentration (10 μM) | inhibits; also recorded: significantly inhibited | inhibits; also recorded: significantly inhibited | significantly increased | remains intact | down-regulates | down-regulates | inhibits; also recorded: down-regulated |
